Measured values: ChEMBL document CHEMBL1201861, “Genomics of Drug Sensitity in Cancer screening data, Wellcome Trust Sanger Institute”
Several values for one entry are separate records, joined by “and”; a condition that tells them apart may be missing. Identical values can stand only once.

Experiments:
Test in all cases: cells
SNB-75 = type: functional, cell-based, Homo sapiens;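 note: cell viability assay measuring growth inhibition of human SNB-75 cells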
Description: SANGER: Inhibition of human SNB75 cell growth in a cell viability assay.

RO82-W-1 = type: functional, cell-based, Homo sapiens;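 note: growth inhibition of human RO82-W-1 cells, measured with a cell viability assay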
Description: SANGER: Inhibition of human RO82-W-1 cell growth in a cell viability assay.

RCC10RGB = type: functional, cell-based, Homo sapiens;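 note: growth inhibition of human RCC10RGB cells, read out by a cell viability assay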
Description: SANGER: Inhibition of human RCC10RGB cell growth in a cell viability assay.

IGR-1 = type: functional, cell-based, Homo sapiens;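 note: growth inhibition of human IGR-1 cells, read out with a cell viability assay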
Description: SANGER: Inhibition of human IGR-1 cell growth in a cell viability assay.

NCI-H2030 = type: functional, cell-based, Homo sapiens;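 note: growth inhibition of human NCI-H2030 cells, read out by a cell viability assay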
Description: SANGER: Inhibition of human NCI-H2030 cell growth in a cell viability assay.

GAMG = type: functional, cell-based, Homo sapiens;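 note: cell growth inhibition measured by a viability assay in the GAMG human cell line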
Description: SANGER: Inhibition of human GAMG cell growth in a cell viability assay.

KYSE-180 = type: functional, cell-based, Homo sapiens;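 note: growth inhibition of KYSE-180 cells, read out with a cell viability assay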
Description: SANGER: Inhibition of human KYSE-180 cell growth in a cell viability assay.

COLO-824 = type: functional, cell-based, Homo sapiens
Description: SANGER: Inhibition of human COLO-824 cell growth in a cell viability assay.

LB1047-RCC = type: functional, cell-based, Homo sapiens;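 note: inhibition of cell growth, determined with a cell viability assay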
Description: SANGER: Inhibition of human LB1047-RCC cell growth in a cell viability assay.

GB-1 = type: functional, cell-based, Homo sapiens;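 note: growth of GB-1 cells judged by a viability assay, IC50 marks the concentration inhibiting growth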
Description: SANGER: Inhibition of human GB-1 cell growth in a cell viability assay.

SW1710 = type: functional, cell-based, Homo sapiens;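 note: growth inhibition of SW1710 cells, determined with a cell viability assay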
Description: SANGER: Inhibition of human SW1710 cell growth in a cell viability assay.

769-P = type: functional, cell-based, Homo sapiens
Description: SANGER: Inhibition of human 769-P cell growth in a cell viability assay.

UMC-11 = type: functional, cell-based, Homo sapiens;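 note: growth inhibition of UMC-11 cells, read out with a cell viability assay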
Description: SANGER: Inhibition of human UMC-11 cell growth in a cell viability assay.

NB6 = type: functional, cell-based, Homo sapiens;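 note: growth inhibition of NB6 cells, read out by a cell viability assay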
Description: SANGER: Inhibition of human NB6 cell growth in a cell viability assay.

C8166 = type: functional, cell-based; conditions: Homo sapiens;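 note: growth inhibition of human C8166 cells measured by a cell viability assay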
Description: SANGER: Inhibition of human C8166 cell growth in a cell viability assay.

NB13 = type: functional, cell-based, Homo sapiens;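 note: cell viability readout measuring growth inhibition of human NB13 cells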
Description: SANGER: Inhibition of human NB13 cell growth in a cell viability assay.

DMS-114 = type: functional, cell-based, Homo sapiens
HSC-3 = type: functional, cell-based, Homo sapiens
Description: SANGER: Inhibition of human HSC-3 cell growth in a cell viability assay.

HT-1376 = type: functional, cell-based, Homo sapiens
Description: SANGER: Inhibition of human HT-1376 cell growth in a cell viability assay.

NCI-H2342 = type: functional, cell-based; conditions: Homo sapiens;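 note: growth inhibition of the cancer cell line, determined with a cell viability assay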
Description: SANGER: Inhibition of human NCI-H2342 cell growth in a cell viability assay.

D-247MG = type: functional, cell-based, Homo sapiens
Description: SANGER: Inhibition of human D-247MG cell growth in a cell viability assay.

A-375 = type: functional, cell-based, Homo sapiens;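 note: growth inhibition of A375 cells, read out with a cell viability assay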
Description: SANGER: Inhibition of human A375 cell growth in a cell viability assay.

MS-1 = type: functional, cell-based; conditions: Homo sapiens
Description: SANGER: Inhibition of human MS-1 cell growth in a cell viability assay.

GP5d = type: functional, cell-based, Homo sapiens;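 note: growth inhibition of human GP5d cells, read out with a cell viability assay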
Description: SANGER: Inhibition of human GP5d cell growth in a cell viability assay.

NCI-H727 = type: functional, cell-based, Homo sapiens;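 note: growth inhibition of human NCI-H727 cells, read out with a cell viability assay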
Description: SANGER: Inhibition of human NCI-H727 cell growth in a cell viability assay.

A101D = type: functional, cell-based, Homo sapiens;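 note: growth inhibition of the cell line, measured with a viability assay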
Description: SANGER: Inhibition of human A101D cell growth in a cell viability assay.

NCI-H2452 = type: functional, cell-based, Homo sapiens;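 note: growth inhibition of NCI-H2452 cells, read out with a cell viability assay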
Description: SANGER: Inhibition of human NCI-H2452 cell growth in a cell viability assay.

HSC-2 = type: functional, cell-based, Homo sapiens;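 note: growth inhibition of human HSC-2 cells, read out by a cell viability assay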
Description: SANGER: Inhibition of human HSC-2 cell growth in a cell viability assay.

KYSE-510 = type: functional, cell-based, Homo sapiens;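 note: cell viability readout used to measure how strongly growth of the cell line is suppressed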
Description: SANGER: Inhibition of human KYSE-510 cell growth in a cell viability assay.

UACC-893 = type: functional, cell-based, Homo sapiens
Description: SANGER: Inhibition of human UACC-893 cell growth in a cell viability assay.

LS-411N = type: functional, cell-based, Homo sapiens
MHH-ES-1 = type: functional, cell-based, Homo sapiens;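 note: cell growth inhibition measured by a cell viability assay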
Description: SANGER: Inhibition of human MHH-ES-1 cell growth in a cell viability assay.

EW-16 = type: functional, cell-based, Homo sapiens;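 note: growth inhibition of human EW-16 cells, read out as cell viability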
Description: SANGER: Inhibition of human EW-16 cell growth in a cell viability assay.

NCI-H226 = type: functional, cell-based, Homo sapiens;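 note: cell viability read-out used to gauge growth inhibition of the cells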
Description: SANGER: Inhibition of human NCI-H226 cell growth in a cell viability assay.

MLMA = type: functional, cell-based, Homo sapiens;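 note: growth inhibition of MLMA cells (human), determined through a cell viability readout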
Description: SANGER: Inhibition of human MLMA cell growth in a cell viability assay.

AU565 = type: functional, cell-based, Homo sapiens;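 note: cell viability assay measuring growth inhibition of human AU565 cells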
Description: SANGER: Inhibition of human AU565 cell growth in a cell viability assay.

EFM-19 = type: functional, cell-based, Homo sapiens;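 note: growth inhibition of human EFM-19 cells, measured in a cell viability assay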
Description: SANGER: Inhibition of human EFM-19 cell growth in a cell viability assay.

SW1783 = type: functional, cell-based; conditions: Homo sapiens;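 note: cell growth inhibition measured with a viability assay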
Description: SANGER: Inhibition of human SW1783 cell growth in a cell viability assay.

T47D = type: functional, cell-based, Homo sapiens;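 note: growth inhibition of human T47D cells, measured with a cell viability assay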
Description: SANGER: Inhibition of human T47D cell growth in a cell viability assay.

MeWo = type: functional, cell-based, Homo sapiens;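 note: growth inhibition of MeWo cells, determined by a cell viability readout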
Description: SANGER: Inhibition of human Mewo cell growth in a cell viability assay.

M059J = type: functional, cell-based, Homo sapiens;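 note: growth inhibition of M059J cells, read out with a cell viability assay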
Description: SANGER: Inhibition of human M059J cell growth in a cell viability assay.

NCI-H1993 = type: functional, cell-based, Homo sapiens;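 note: growth inhibition of the cancer cell line, assessed with a cell viability assay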
Description: SANGER: Inhibition of human NCI-H1993 cell growth in a cell viability assay.

JVM-2 = type: functional, cell-based; conditions: Homo sapiens;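 note: growth inhibition of JVM-2 cells determined by a cell viability assay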
Description: SANGER: Inhibition of human JVM-2 cell growth in a cell viability assay.

SW684 = type: functional, cell-based, Homo sapiens;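 note: growth inhibition of human SW684 cells, measured by a cell viability assay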
Description: SANGER: Inhibition of human SW684 cell growth in a cell viability assay.

NCI-H2170 = type: functional, cell-based, Homo sapiens;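 note: cell viability assay measuring growth inhibition of human NCI-H2170 cancer cells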
Description: SANGER: Inhibition of human NCI-H2170 cell growth in a cell viability assay.

SK-LU-1 = type: functional, cell-based, Homo sapiens;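 note: cell viability assay measuring growth inhibition of human SK-LU-1 cells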
Description: SANGER: Inhibition of human SK-LU-1 cell growth in a cell viability assay.

A388 = type: functional, cell-based, Homo sapiens;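 note: growth inhibition of human A388 cells, read out with a cell viability assay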
Description: SANGER: Inhibition of human A388 cell growth in a cell viability assay.

NCI-H1299 = type: functional, cell-based, Homo sapiens;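 note: growth inhibition of human NCI-H1299 cells, read out by a cell viability assay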
Description: SANGER: Inhibition of human NCI-H1299 cell growth in a cell viability assay.

NOS-1 = type: functional, cell-based, Homo sapiens;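 note: growth inhibition of the human NOS-1 cell line, read out with a cell viability assay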
Description: SANGER: Inhibition of human NOS-1 cell growth in a cell viability assay.

A253 cell line = type: functional, cell-based, Homo sapiens;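 note: growth inhibition of A253 cells, read out with a cell viability assay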
Description: SANGER: Inhibition of human A253 cell growth in a cell viability assay.

Measured: IC50

CN(Cc1cnc2nc(N)nc(N)c2n1)c1ccc(C(=O)N[C@@H](CCC(=O)O)C(=O)O)cc1 [METHOTREXATE]
107 nM: MHH-ES-1; Homo sapiens, MHH-ES-1
61.3 nM: AU565; Homo sapiens, AU565
96.5 nM: MLMA; Homo sapiens, MLMA
45.3 nM: 769-P; Homo sapiens, 769-P | MS-1
118 nM: LS-411N; Homo sapiens, LS-411N
> 200 nM: SNB-75; Homo sapiens, SNB-75 | RO82-W-1; Homo sapiens, RO82-W-1 | RCC10RGB; Homo sapiens, RCC10RGB | IGR-1; Homo sapiens, IGR-1 | NCI-H2030; Homo sapiens, NCI-H2030 | GAMG; Homo sapiens, GAMG | KYSE-180; Homo sapiens, KYSE-180 | COLO-824; Homo sapiens, COLO-824 | LB1047-RCC; Homo sapiens, LB1047-RCC | GB-1; Homo sapiens, GB-1 | SW1710; Homo sapiens, SW1710 | UMC-11; Homo sapiens, UMC-11 | NB6; Homo sapiens, NB6 | C8166 | NB13; Homo sapiens, NB13 | DMS-114; Homo sapiens, DMS-114 | HSC-3; Homo sapiens, HSC-3 | HT-1376; Homo sapiens, HT-1376 | NCI-H2342 | D-247MG; Homo sapiens, D-247MG | A-375; Homo sapiens, A-375 | GP5d; Homo sapiens, GP5d | NCI-H727; Homo sapiens, NCI-H727 | A101D; Homo sapiens, A101D | NCI-H2452; Homo sapiens, NCI-H2452 | HSC-2; Homo sapiens, HSC-2 | UACC-893; Homo sapiens, UACC-893 | EW-16; Homo sapiens, EW-16 | NCI-H226; Homo sapiens, NCI-H226 | EFM-19; Homo sapiens, EFM-19 | SW1783 | T47D; Homo sapiens, T47D | MeWo; Homo sapiens, MeWo | M059J; Homo sapiens, M059J | NCI-H1993; Homo sapiens, NCI-H1993 | JVM-2 | SW684; Homo sapiens, SW684 | NCI-H2170; Homo sapiens, NCI-H2170 | SK-LU-1; Homo sapiens, SK-LU-1 | A388; Homo sapiens, A388 | NCI-H1299; Homo sapiens, NCI-H1299 | NOS-1; Homo sapiens, NOS-1
91.7 nM: KYSE-510; Homo sapiens, KYSE-510

Cc1cc([C@@H](C)Nc2ccccc2C(=O)O)c2nc(N3CCOCC3)cc(=O)n2c1 [AZD-6482]
3150 nM: SNB-75; snb-75
> 5120 nM: RO82-W-1; ro82-w-1 | RCC10RGB; rcc10rgb | IGR-1; igr-1 | KYSE-180; kyse-180 | COLO-824; colo-824 | LB1047-RCC; Homo sapiens, LB1047-RCC | LB1047-RCC; lb1047-rcc | GB-1; gb-1 | 769-P; 769-p | UMC-11; Homo sapiens, UMC-11 | UMC-11; umc-11 | NB6; nb6 | C8166 | NB13; Homo sapiens, NB13 | NB13; nb13 | DMS-114; dms-114 | HSC-3; hsc-3 | HT-1376; ht-1376 | A253 cell line; Homo sapiens, A253 | A253 cell line; a253 | D-247MG; d-247mg | A-375; a-375 | MS-1 | GP5d; Homo sapiens, GP5d | GP5d; gp5d | NCI-H727; nci-h727 | NCI-H2452; nci-h2452 | KYSE-510; Homo sapiens, KYSE-510 | KYSE-510; kyse-510 | LS-411N; Homo sapiens, LS-411N | LS-411N; ls-411n | MHH-ES-1; mhh-es-1 | EW-16; ew-16 | NCI-H226; Homo sapiens, NCI-H226 | NCI-H226; nci-h226 | AU565; Homo sapiens, AU565 | AU565; au565 | EFM-19; efm-19 | M059J; Homo sapiens, M059J | M059J; m059j | NCI-H1993; nci-h1993 | JVM-2 | SW684; Homo sapiens, SW684 | SW684; sw684 | NCI-H2170; nci-h2170 | SK-LU-1; sk-lu-1 | A388; a388 | NOS-1; Homo sapiens, NOS-1 | NOS-1; nos-1
3980 nM and 1510 nM: UACC-893; uacc-893
2690 nM: NCI-H2030; nci-h2030
3210 nM and > 5120 nM: A101D; a101d
> 5120 nM and 3170 nM: MeWo; mewo
4430 nM and 1010 nM: GAMG; gamg
529 nM and 1990 nM: SW1710; sw1710
3670 nM and > 5120 nM: NCI-H1299; nci-h1299
533 nM: T47D; Homo sapiens, T47D
1670 nM: SNB-75; Homo sapiens, SNB-75
938 nM: T47D; t47d
843 nM: NCI-H2342
3720 nM: MLMA; Homo sapiens, MLMA
1760 nM: HSC-2; Homo sapiens, HSC-2
4880 nM: MLMA; mlma
2900 nM: NCI-H2030; Homo sapiens, NCI-H2030
1140 nM: HSC-2; hsc-2
